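Results reflect a 48-hour exposure of cells in 96-well plates to compound at five concentrations. GI50 is the concentration that inhibits growth by half. Definition used: TGI = concentration required for complete inhibition of growth.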
system: OVCAR-3 ovarian; assay: NCI-60 cell line screen, 48 h

SMILES | TGI [µM] | GI50 [µM]
O=C(CSc1nnc(-c2ccccc2NC(=O)C(F)(F)F)c(=O)[nH]1)NC(=O)Nc1ccccc1 | > 100 | 
N#CC1Nc2ccccc2[C@@H](O)C1O (stereo partly drawn) | > 100 | 
O=C1c2ccn(CCCCNC(CO)(CO)CO)c2C(=O)c2c1c(O)c1ccccc1c2O | 0.388 | 0.183
c1ccc2c3ccn4cc5c(cc4c-3nc2c1)CCCC5 | 8.84 | 3.31
CCOC(=O)c1[nH]c(COC(C)=O)c(CCCOC(C)=O)c1CCCOC(C)=O | > 100 | 
CCN1C(=O)N(CC)C2C1NC(=S)N2/N=C/C=C/c1cccs1 (stereo not drawn) | 0.715 | 0.241
COc1ccc(C(=O)C(CO)Oc2ccccc2OC)cc1OC (stereo not drawn) | > 100 | 

system: U251 CNS; assay: NCI-60 cell line screen, 48 h

SMILES | GI50 [µM] | TGI [µM]
Nc1nc(Nc2ccccc2)c2ncn(Cc3cc4c(cc3Br)OCO4)c2n1 | 0.12 | 1.45
Nc1c(C(=O)N/N=C/c2ccc(-c3ccc(Cl)cc3)o2)cnn1-c1ccnc2c(C(F)(F)F)cccc12 | > 100 | > 100
CCCCCc1c(C)[nH]c(/C=C2\N=C(c3ccc[nH]3)C=C2CC)c1C | < 0.01 | 0.135
CC(=O)Oc1ccccc1C(=O)N=C1[Se]CCN1C(=O)c1ccccc1OC(C)=O | 0.734 | 2.18
CC(C)(C)C(=O)/C=C/c1ccc(Oc2ccccc2)cc1 |  | 28.4
CC1=C(C(=O)Nc2c(C)cccc2C)C(c2ccccc2Cl)C(C(=O)Nc2c(C)cccc2C)=C(C)N1 |  | > 100
Cc1cn2c(/C=C3/C(=O)Nc4ccccc43)c(-c3ccc(Cl)cc3)nc2s1 | 5.31 | 11.2
O=C1CSC(Cc2nc3ccccc3[nH]2)=N1 |  | 49
COc1ccccc1NC(=O)C1=C(C)NC(C)=C(C(=O)Nc2ccccc2OC)C1c1ccc([N+](=O)[O-])cc1 |  | > 100
CCOC(=O)[C@H](CCCNC(=O)OC(C)(C)C)NCc1ccc(OC)c(OC)c1 |  | > 100
O=C(/C=C/c1c(O)ccc2ccccc12)c1ccc2ccccc2c1 |  | > 100
O=[N+]([O-])c1ccc(-n2nnc(C3=NCCCN3)c2-c2ccc(Cl)cc2)cc1 |  | > 100
COC(=O)C12C3C4C5(C(=O)OC)C(C1C35C(=O)N(C(C)C)C(C)C)C42C(=O)N(C(C)C)C(C)C (stereo not drawn) |  | > 50
N#CC(C#N)=c1[nH]c2cccc3c2-c2c(cccc2c3=C(C#N)C#N)[nH]1 |  | > 100
C#C[C@]1(O)CC[C@H]2[C@@H]3CC=C4c5sc(Nc6ccccc6)nc5CC[C@]4(C)[C@H]3CC[C@@]21C | 0.886 | 3.18
COC(=O)/C=C/C1C(C(=O)OC)C2(C(=O)OC)CCC1(C(=O)OC)N2 (stereo not drawn) |  | > 100

SMILES | GI50 [µM] | TGI [µM]
CSC1(CC(=O)N(C)C)C(=O)Nc2ccccc21 (stereo not drawn) |  | > 100
N#CC(/C(=N/NC(=O)C(=O)NN)C(=O)NC12CC3CC(CC(C3)C1)C2)c1ccccc1 (stereo not drawn) |  | > 100
CC(=O)OCC1OC([S-])C(OC(C)=O)C(OC(C)=O)C1OC(C)=O.CC[PH+](CC)CC.CC[PH+](CC)CC.[Au].[Au] (stereo not drawn) | 0.149 | 0.306
Cc1cc(C)n(CCNCCn2nc(C)cc2C)n1 |  | > 100
COc1cc2c(cc1OCc1ccccc1)CNCC2 |  | > 100
O=C(CN1CCCCC1)N1CCc2c([nH]c3ccccc23)C1c1cccnc1 (stereo not drawn) |  | > 100
O/N=C\c1c(O)ccc2ccccc12 |  | > 100
CCCCCCCCCc1cc(=O)c2c(O)cccc2o1 |  | > 100
COc1cc2cn3c4ccc(O)cc4[nH]c(=O)c3c2cc1OC | < 0.01 | 1.23
O=C(C[n+]1ccccc1)NNC(=O)/C(=C/c1ccc2c(c1)OCO2)NC(=O)c1ccccc1 |  | > 76.5
COc1ccc(/C=c2/sc3n(c2=O)C(c2ccc(OC)c(OC)c2)C2=C(N=3)c3cc(F)ccc3OC2)cc1 (stereo not drawn) | 20.9 | > 78.5
O=S(O)CCCCSSCc1ccccc1CSSCCCCS(=O)O |  | > 100
Clc1ccc(-c2c(C3=NCCN3)nnn2-c2ccc(Cl)cc2)cc1 |  | 45.2
CC(C)(C)N1CC2(CCCCC2)C1=O |  | > 100
COc1ccc(C2C(C#N)=C(N)OC3=C2COc2ccc(F)cc23)cc1OC (stereo not drawn) | 17 | 59.2
NC1CCCC[C@H]1N.N[C@@H]1CCCC[C@@H]1N.O=C(P(=O)([O-])[O-])P(=O)([O-])[O-].[Pt+4].[Pt+4] | > 100 | > 100
